Assays:
AmTRET1 = biological target: T1, AmTRET1 (Apis mellifera ligustica, UniProt A9ZSY2); test: Trehalose uptake in Xenopus oocytes expressing AmTRET1; type: cell-based; settings: 105 mM of trehalose, 3 h
T1 construct: ORF of either Tret1, DmTret1, AmTret1, AgTret1 or BmTret1 cDNA was amplified with PCR; expressed in transfected cells; host or cells: Xenopus laevis oocytes injected with cRNA
T1 sequence (A9ZSY2 1-502): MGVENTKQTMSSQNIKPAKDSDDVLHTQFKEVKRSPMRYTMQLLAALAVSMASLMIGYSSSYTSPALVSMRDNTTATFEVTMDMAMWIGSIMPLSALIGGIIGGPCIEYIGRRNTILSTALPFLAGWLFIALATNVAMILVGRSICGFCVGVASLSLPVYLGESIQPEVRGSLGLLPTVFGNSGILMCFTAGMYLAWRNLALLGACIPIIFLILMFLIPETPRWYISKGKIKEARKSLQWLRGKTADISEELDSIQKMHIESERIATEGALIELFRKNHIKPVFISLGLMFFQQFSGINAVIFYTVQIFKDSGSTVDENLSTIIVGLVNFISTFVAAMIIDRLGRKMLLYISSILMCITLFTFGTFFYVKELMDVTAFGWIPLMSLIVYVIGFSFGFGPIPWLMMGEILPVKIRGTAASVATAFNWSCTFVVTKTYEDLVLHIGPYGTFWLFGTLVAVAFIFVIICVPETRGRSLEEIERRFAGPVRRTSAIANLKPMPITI
Excerpt: (§1) The capped RNA (cRNA) expression vector pTRET1-XbG-ev1 series was constructed as follows: ORF of either Tret1, DmTret1, AmTret1, AgTret1 or BmTret1 cDNA was amplified with PCR using specific primers containing Bgl II site at the 5′-end on each primer, respectively. The PCR products were digested with the restriction enzymes, and cloned into the site of Bgl II in pXbG-ev1 (Preston, G. M., et al. (1992) Science 256, 385-387). ORF of hGLUT1 cDNA was obtained by digestion of pSPMM1 with BamH I, and then subcloned into the site of Bgl II in pXbG-2. Template DNAs for cRNA synthesis were amplified from the corresponding cRNA expression vectors with a high fidelity DNA polymerase, KOD—Plus—, (TOYOBO). The cRNAs were synthesized with mMESSAGE mMACHINE T7 Kit (Ambion), and then purified with RNeasy MiniElute Cleanup kit (Qiagen).
(§2) All uptake assays for zero-trans trehalose and/or other sugars were performed using Xenopus oocytes expressing TRET1 at 15° C. in MBS containing appropriate concentrations of sugars. Sugar concentrations were determined using HPLC (Watanabe, M., et al. (2002) J Exp Biol 205, 2799-2802). All assays were carried out in triplicate. […] (data not shown).
(§3) Likewise, whether these Tret1-orthologs have trehalose transport activity was examined using the Xenopus oocyte expression system incubated in 105 mM of trehalose for 3 h.

DmTRET1 = biological target: T2, DmTRET1 (Drosophila melanogaster, UniProt A1Z8N1); test: Trehalose uptake in Xenopus oocytes expressing DmTRET1; type: cell-based; settings: 105 mM of trehalose, 3 h
T2 construct: ORF of either Tret1, DmTret1, AmTret1, AgTret1 or BmTret1 cDNA was amplified with PCR; expressed in transfected cells; host or cells: Xenopus laevis oocytes injected with cRNA
T2 sequence (A1Z8N1 352-857): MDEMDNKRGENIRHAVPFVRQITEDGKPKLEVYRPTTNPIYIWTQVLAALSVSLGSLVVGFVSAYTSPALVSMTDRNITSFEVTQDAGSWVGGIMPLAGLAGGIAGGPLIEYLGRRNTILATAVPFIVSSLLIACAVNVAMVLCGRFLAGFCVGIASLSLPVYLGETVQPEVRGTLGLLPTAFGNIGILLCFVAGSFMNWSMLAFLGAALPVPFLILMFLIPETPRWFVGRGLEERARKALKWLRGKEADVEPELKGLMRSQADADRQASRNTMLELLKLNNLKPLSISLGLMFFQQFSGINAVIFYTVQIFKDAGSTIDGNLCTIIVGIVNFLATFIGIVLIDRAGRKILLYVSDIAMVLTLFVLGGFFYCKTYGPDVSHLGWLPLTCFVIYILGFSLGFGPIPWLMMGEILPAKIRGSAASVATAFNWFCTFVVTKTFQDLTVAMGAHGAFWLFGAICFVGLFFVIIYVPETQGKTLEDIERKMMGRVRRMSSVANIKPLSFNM
Excerpt: as §1, §2, §3

[1] = Degradation of trehalose in extracts of mammalian cells; type: in vitro ADME; settings: extracts of CHO-K1, HuH-7, NIH3T3 cells, 3 h at 37° C., data not shown

OC[C@H]1O[C@H](O[C@H]2O[C@H](CO)[C@@H](O)[C@H](O)[C@H]2O)[C@H](O)[C@@H](O)[C@@H]1O [trehalose]
trehalose transport activity (AmTRET1): showed trehalose transport activity
trehalose transport activity (DmTRET1): showed trehalose transport activity
degradation of trehalose [1]: No degradation
